Measured values: patent US11365199B2, “Pyrazole compounds as modulators of FSHR and uses thereof” (Merck Patent GmbH, priority 2013, dated 2022)

What was measured:
FSHR = biological target: T1, FSHR (Homo sapiens, UniProt P23945); experiment: EC50 of cyclic AMP production in CHO FSHR cells + EC20 FSH (Assay A); format: cell-based; conditions: CHO FSHR cells + EC20 FSH, cAMP HTRF; read-out: Assay A: EC50 of cyclic AMP production
T1 construct: expressed in transfected cells; host or cells: CHO (Cho-FSHR-LUC-1-1-43)
T1 sequence (P23945 18-695): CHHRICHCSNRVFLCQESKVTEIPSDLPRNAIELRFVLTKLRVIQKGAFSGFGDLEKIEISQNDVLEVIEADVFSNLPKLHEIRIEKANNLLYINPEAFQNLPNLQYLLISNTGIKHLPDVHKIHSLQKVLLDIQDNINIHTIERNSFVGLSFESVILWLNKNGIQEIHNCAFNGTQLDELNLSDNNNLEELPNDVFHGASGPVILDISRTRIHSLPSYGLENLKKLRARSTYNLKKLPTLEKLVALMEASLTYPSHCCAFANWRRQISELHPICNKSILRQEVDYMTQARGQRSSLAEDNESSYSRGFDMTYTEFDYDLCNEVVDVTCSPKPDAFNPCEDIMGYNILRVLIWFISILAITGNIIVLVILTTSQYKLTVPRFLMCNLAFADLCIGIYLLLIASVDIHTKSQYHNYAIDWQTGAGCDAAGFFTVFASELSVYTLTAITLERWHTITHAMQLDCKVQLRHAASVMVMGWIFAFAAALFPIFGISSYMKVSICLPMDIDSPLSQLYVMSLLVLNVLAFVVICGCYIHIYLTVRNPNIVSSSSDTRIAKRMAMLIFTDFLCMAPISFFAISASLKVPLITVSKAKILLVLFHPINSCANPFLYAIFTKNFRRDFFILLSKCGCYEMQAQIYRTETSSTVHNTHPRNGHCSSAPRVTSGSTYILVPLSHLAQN
Summary of the method: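 cAMP HTRF read-out (665 nm/620 nm ratio) after 1 h at 37° C of Cho-FSHR-LUC cells treated with serially diluted test compound plus EC20 FSH ([…]) and IBMX (final 200 μM). Responses given as percent of maximal FSH-standard effect.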

[1] = biological target: T2, follicle-stimulating hormone (FSH) receptor (Rattus norvegicus, UniProt P20395); experiment: Rat granulosa EC50 FSH (Assay B); format: cell-based; conditions: rat granulosa cells; read-out: Assay B: Rat granulosa EC50 FSH
T2 construct: endogenous in cells; host or cells: primary rat granulosa cells
T2 sequence (P20395 18-692): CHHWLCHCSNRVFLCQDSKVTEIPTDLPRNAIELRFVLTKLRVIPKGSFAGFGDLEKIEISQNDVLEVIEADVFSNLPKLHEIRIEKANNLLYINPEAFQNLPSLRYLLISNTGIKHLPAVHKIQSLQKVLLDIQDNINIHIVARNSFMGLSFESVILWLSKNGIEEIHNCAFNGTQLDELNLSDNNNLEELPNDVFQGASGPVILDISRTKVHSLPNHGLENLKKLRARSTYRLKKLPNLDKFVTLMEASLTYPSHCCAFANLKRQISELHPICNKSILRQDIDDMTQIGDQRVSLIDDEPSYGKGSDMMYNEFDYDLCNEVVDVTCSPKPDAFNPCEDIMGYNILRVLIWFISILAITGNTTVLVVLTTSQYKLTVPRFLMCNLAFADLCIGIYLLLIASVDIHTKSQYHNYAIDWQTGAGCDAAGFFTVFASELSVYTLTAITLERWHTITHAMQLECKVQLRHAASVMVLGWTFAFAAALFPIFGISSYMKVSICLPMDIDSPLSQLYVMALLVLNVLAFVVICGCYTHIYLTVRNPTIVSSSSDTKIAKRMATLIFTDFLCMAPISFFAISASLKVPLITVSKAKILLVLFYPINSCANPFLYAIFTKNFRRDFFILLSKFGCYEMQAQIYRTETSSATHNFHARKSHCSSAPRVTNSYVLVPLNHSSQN
Method: Rat Granulosa EC50 FSH (Assay B)
The assay was performed pursuant to the teaching of Yanofsky et al. (2006) Allosteric activation of the follicle-stimulating hormone (FSH) receptor by selective, nonpeptide agonists (JBC 281(19): 13226-13233, which is incorporated by reference in the disclosure of the invention).

| Structure (SMILES) | EC50 (FSHR) [nM] | EC50 [1] [nM] |
| --- | --- | --- |
| COc1cc2c(cc1-c1nc[nH]n1)-c1c(c(C(=O)N3CCOCC3(C)C)nn1-c1ccsc1)CO2 [Compound 161, (3,3-Dimethyl-morpholin-4-yl)-[7-methoxy-1-thiophen-3-yl-8-(5H-[1,2,4]triazol-3-yl)-1,4-dihydro-chromeno[4,3-c]pyrazol-3-yl]-methanone] | < 100 | < 100 |
| [2H]C([2H])([2H])OCC1(N(C(=O)c2nn(-c3ccsc3)c3c2COc2cc(OC)c(CC(C)C)cc2-3)C([2H])([2H])[2H])COC1 [Compound 162] | < 100 | 100 to 1000 |
| [2H]C([2H])([2H])N(C(=O)c1nn(-c2ccsc2)c2c1COc1cc(OC)c(CC(C)C)cc1-2)C1(C)COC1 [Compound 163] | < 100 | 100 to 1000 |
| [2H]C([2H])([2H])OC1(CN(C(=O)c2nn(-c3ccsc3)c3c2COc2cc(OC)c(-c4ccn(C)n4)cc2-3)C([2H])([2H])[2H])COC1 [Compound 167] | 100 to 1000 | 100 to 1000 |
| [2H]C([2H])([2H])OC1(CN(C(=O)c2nn(-c3ccsc3)c3c2COc2cc(OC)c(-c4ccn(C)c4)cc2-3)C([2H])([2H])[2H])COC1 [Compound 168] | < 100 | 100 to 1000 |
| COc1cc2c(cc1-c1ccn(C)n1)-c1c(c(C(=O)N3CCNCC3(C)C)nn1-c1ccsc1)CO2 [Compound 169, (2,2-Dimethyl-piperazin-1-yl)-[7-methoxy-8-(1-methyl-1H-pyrazol-3-yl)-1-thiophen-3-yl-1,4-dihydro-chromeno[4,3-c]pyrazol-3-yl]-methanone] | < 100 | 100 to 1000 |
| COc1cc2c(cc1-c1ccn(C)c1)-c1c(c(C(=O)N3CCNCC3(C)C)nn1-c1ccsc1)CO2 [Compound 170] | < 100 | 1000 to 5000 |
| COc1cc2c(cc1CNC(C)=O)-c1c(c(C(=O)N3CCOCC3(C)C)nn1-c1ccsc1)CO2 [Compound 175, N-[3-(3,3-Dimethyl-morpholine-4-carbonyl)-7-methoxy-1-thiophen-3-yl-1,4-dihydro-chromeno[4,3-c]pyrazol-8-ylmethyl]-acetamide] | 100 to 1000 | > 5000 |
| [2H]C([2H])([2H])OCC1(C)CCCN1C(=O)c1nn(-c2ccsc2)c2c1COc1cc(OC)c(-c3ccn(C)n3)cc1-2 (stereo not drawn) [Compound 182] | < 100 | < 100 |
| [2H]C([2H])([2H])OCC1(C)CCCN1C(=O)c1nn(-c2ccsc2)c2c1COc1cc(OC)c(-c3ccn(C)c3)cc1-2 (stereo not drawn) [Compound 184] | < 100 | < 100 |
| COc1cc2c(cc1-c1ccn(C)c1)-c1c(c(C(=O)NC3(CCO)COC3)nn1-c1ccsc1)CO2 [Compound 186, 7-Methoxy-8-(1-methyl-1H-pyrrol-3-yl)-1-thiophen-3-yl-1,4-dihydro-chromeno[4,3-c]pyrazole-3-carboxylic acid [3-(2-hydroxy-ethyl)-oxetan-3-yl]-amide] | < 100 | 100 to 1000 |
| COc1cc2c(cc1C1=CCOCC1)-c1c(c(C(=O)N3CCOCC3(C)C)nn1-c1ccsc1)CO2 [Compound 189, [8-(3,6-Dihydro-2H-pyran-4-yl)-7-methoxy-1-thiophen-3-yl-1,4-dihydro-chromeno[4,3-c]pyrazol-3-yl]-(3,3-dimethyl-morpholin-4-yl)-methanone] | < 100 | < 100 |
| COc1cc2c(cc1C1CCOC1)-c1c(c(C(=O)N(C)C(C)(C)C)nn1-c1ccsc1)CO2 (stereo not drawn) [Compound 194, 7-Methoxy-8-(tetrahydro-furan-3-yl)-1-thiophen-3-yl-1,4-dihydro-chromeno[4,3-c]pyrazole-3-carboxylic Acid tert-butyl-methyl-amide] | < 100 | 100 to 1000 |
| [2H]C([2H])([2H])OCCC1(N(C(=O)c2nn(-c3ccsc3)c3c2COc2cc(OC)c(-c4ccn(C)c4)cc2-3)C([2H])([2H])[2H])COC1 [Compound 198] | < 100 | < 100 |
| [2H]C([2H])([2H])OCC1(N(C(=O)c2nn(-c3ccsc3)c3c2COc2cc(OC)c(S(=O)(=O)C(C)C)cc2-3)C([2H])([2H])[2H])COC1 [Compound 200] | < 100 | > 5000 |
